The record followed here is patent US20220380310A1, “P2X7R ANTAGONISTS” (priority 2019, published 2022).

Assay [1] has as its target T1, Human P2X4 receptor (P2X4R) (Homo sapiens, UniProt Q99571).
T1 construct: expressed in transfected cells; host or cells: HEK-293
T1 sequence (Q99571 1-388): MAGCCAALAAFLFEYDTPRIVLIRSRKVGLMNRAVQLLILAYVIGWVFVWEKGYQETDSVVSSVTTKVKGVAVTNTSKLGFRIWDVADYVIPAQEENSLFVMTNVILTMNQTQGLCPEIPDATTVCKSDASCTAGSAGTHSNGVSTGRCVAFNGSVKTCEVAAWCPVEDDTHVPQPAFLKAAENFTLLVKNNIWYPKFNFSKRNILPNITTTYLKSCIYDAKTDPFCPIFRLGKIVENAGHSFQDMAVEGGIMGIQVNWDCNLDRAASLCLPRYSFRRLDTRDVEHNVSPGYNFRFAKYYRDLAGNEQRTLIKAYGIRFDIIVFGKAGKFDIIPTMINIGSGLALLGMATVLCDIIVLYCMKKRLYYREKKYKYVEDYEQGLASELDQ
Briefly: Receptor-mediated calcium entrance assay (Calcium Assay), P2X4R transfected HEK-293 cells. Format: cell-based. The note with it: HEK293, compound at 5 μM, 1 mM ATP stimulus, read-out: Percentage of activity remains in the presence of the compound at 5 μM, P2X4R (Calcium Assay). An excerpt:
Human P2X1 receptor (P2X1R) is a member of P2X family. […] Thus, the calcium assay was used. In the calcium assay, P2X receptor activation leads to opening of ion channels, which increases intracellular calcium concentration. The increased intracellular calcium concentration can be detected by a calcium indicator dye such as Fluo-4 or Fluo-8. Molecular Probes™ Fluo-4, AM (Cat. No. F14201 from Fisher Scientific) was used in the assay. The procedures were similar as described in the Yo-Pro-1 assay until day 4. The construct of P2X1R for transient transfection to HEK-293 cells was the courtesy from Dr. Richard J. Evans laboratory (J. Biol. Chem. 279:9043-9055). After transfection and expression, on day 4 cells were washed twice by Ca-HBSS (The composition (in mM) was NaCl 135, HEPES 10, D-glucose 10, KCl 5.4, CaCl2 2, and MgCl2 1, pH to 7.4 by NaOH) and incubated in dye loading solution (The solution contained 2.5 μM Fluo-4, 1 mM probenecid, and 1× PowerLoad (Cat. No. P10020 from Fisher Scientific) in Ca-HBSS) for 70 minutes at 37° C. Then the extracellular loading dye was washed away and cells were incubated at Ca-HBSS containing 1 mM probenecid for 30 minutes. Before the final steps, probenecid was washed away with Ca-HBSS. The assay was performed by adding 25 μl of Ca-HBSS followed by 25 μl of various test compounds. At this point, the base level of fluorescence was obtained through the microplate reading—the base microplate reading for this assay. At the end, the stimulus (ATP at 20 μM was the final concentration for P2X1R) was added to activate the P2X1R. Activation of P2X1R opened the channel to allow influx of calcium, which was represented by fluorescence increases that were measured by the microplate device with excitation at 475 nm and emission wavelength in the range of 500-550 nm. The data were analyzed the same way as described before: The result of each well was first normalized by its corresponding base microplate reading. Then, the negative control signal was subtracted from. In the negative control, the test compound and the stimulus were replaced by Ca-HBSS. […] An average of six highest values of the plate (AVG) were considered as 100% and the value of each well was divided by AVG and presented as the relative values in percentages.
Human P2X4 receptor (P2X4R) construct (J. Biol. Chem. 290, 7930-7942) was transiently transfected to HEK-293 cells and the calcium assay was performed as described above. When 1 mM ATP was used as stimulus, an increased receptor mediated activity leading to intracellular calcium elevation can be seen in less than 10 minutes.

Assay [2] concerns the target T2, P2X2R (Homo sapiens, UniProt Q9UBL9).
T2 construct: expressed in transfected cells; host or cells: HEK-293
T2 sequence (Q9UBL9 1-471): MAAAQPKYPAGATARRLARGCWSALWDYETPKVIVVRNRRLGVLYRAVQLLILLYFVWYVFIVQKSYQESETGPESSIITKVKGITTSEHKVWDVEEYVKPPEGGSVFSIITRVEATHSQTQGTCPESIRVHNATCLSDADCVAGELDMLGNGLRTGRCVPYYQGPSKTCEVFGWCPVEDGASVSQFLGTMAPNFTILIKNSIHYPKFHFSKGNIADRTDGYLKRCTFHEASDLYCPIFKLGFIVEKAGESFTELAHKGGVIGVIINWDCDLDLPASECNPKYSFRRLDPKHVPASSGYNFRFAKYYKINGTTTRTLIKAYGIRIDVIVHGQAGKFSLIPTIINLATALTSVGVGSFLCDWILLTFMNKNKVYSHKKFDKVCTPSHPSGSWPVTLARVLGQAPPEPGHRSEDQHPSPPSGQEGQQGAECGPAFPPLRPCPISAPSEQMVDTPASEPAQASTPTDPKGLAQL
Briefly: Receptor-mediated calcium entrance assay (Calcium Assay), P2X2R. It counts as cell-based. As to conditions: for remaining activity at 5 µM: compound at 5 μM, read-out: Percentage of activity remains in the presence of the compound at 5 μM, P2X2R (Calcium Assay).

In the case of `O=C(CCc1ccccc1)N1CCN(S(=O)(=O)c2ccc(NC3CCCCC3)cc2)CC1` [#33], the remaining activity at 5 µM in assay [1] is 83.9%; in assay [2], 83.6%. As for `O=S(=O)(c1ccccc1)C1CN(S(=O)(=O)c2ccc(N3CCOCC3)cc2)C1` [#11], the remaining activity at 5 µM is 59.6% in assay [1] and 52% in assay [2]. For the compound `O=C(CCc1ccccc1)NC1CCCN(S(=O)(=O)c2ccc(N3CCC(F)(F)CC3)cc2)C1` (centres unmarked) [#46], the remaining activity at 5 µM in assay [1] is 75%; in assay [2], 71%. As for `O=C(NCCc1ccccc1)C1CCN(S(=O)(=O)c2ccc(N3CCCC3)cc2)CC1` [#21], the figures for the remaining activity at 5 µM in assay [1] and in assay [2] were 31% and 94.3%, respectively. Take `CN1CCN(c2ccc(S(=O)(=O)N3CCCC(NC(=O)CCc4ccccc4)C3)cc2)CC1` (centres unmarked) [#18]: the remaining activity at 5 µM in assay [1] was found to be 61.6%; in assay [2], 73.1%. In the case of `O=C(CCc1ccccc1)NC1CCCN(S(=O)(=O)c2ccc(N3CCC(Oc4ccccc4)CC3)cc2)C1` (centres unmarked) [#38], the remaining activity at 5 µM in assay [1] was found to be 71.1%; in assay [2], 52.2%. Regarding `O=C(NCCc1ccccc1)C1CCCN(S(=O)(=O)c2ccc(N3CCOCC3)cc2)C1` (centres unmarked) [#24], the remaining activity at 5 µM in assay [1] stood at 68.1%; in assay [2], 73.5%.

Regarding `CC(C)N(C(C)C)S(=O)(=O)c1ccc(N2CCCC(NC(=O)CCc3ccccc3)C2)cc1` (centres unmarked) [#49], the remaining activity at 5 µM in assay [1] came to 35.3%; in assay [2], 82.6%.

For the compound `CC(C)COc1ccc(S(=O)(=O)N2CCCC(NC(=O)CCc3ccccc3)C2)cc1` (centres unmarked) [#6], the remaining activity at 5 µM in assay [1] was determined as 98.9%; in assay [2], 55.2%. For `O=C(CCc1ccccc1)N1CCN(S(=O)(=O)c2ccc(F)cc2)CC1` [#30], in that order: 76.8% and 67.5%.

In the case of `O=C(CCc1ccccc1)NC1CCCN(S(=O)(=O)c2ccc(-n3cc(Br)cn3)cc2)C1` (centres unmarked) [#9], the remaining activity at 5 µM in assay [1] worked out at 84.5%; in assay [2], 61.3%. Regarding `O=C(CCc1ccccc1)NC1CCCN(S(=O)(=O)c2ccc(N3CCCC3)cc2)C1` (centres unmarked) [#13], the remaining activity at 5 µM stood at 88.8% in assay [1] and 67.4% in assay [2]. As to `CC(C)S(=O)(=O)c1ccc(N2CCCC(NC(=O)CCc3ccccc3)C2)cc1` (centres unmarked) [#7], the remaining activity at 5 µM in assay [1] was 76.8%; in assay [2] it was 78.8%.

For the compound `O=C(CCc1ccccc1)NC1CCCN(c2ccc(S(=O)(=O)N3CCCC3)cc2)C1` (centres unmarked) [#55], the remaining activity at 5 µM worked out at 37.7% in assay [1] and 52.7% in assay [2]. In the case of `O=S(=O)(c1ccccc1)C1CN(S(=O)(=O)c2ccc(N3CCCCC3)cc2)C1` [#10], the figures for the remaining activity at 5 µM in assay [1] and in assay [2] were 69.5% and 69.3%, respectively. Take `O=C(CCc1ccccc1)NC1CCCN(c2ccc(S(=O)(=O)NC3CCCCC3)cc2)C1` (centres unmarked) [#51]: the results for the remaining activity at 5 µM in assay [1] and in assay [2] were 71.3% and 81.2%, respectively. For `NS(=O)(=O)c1ccc(N2CCCC(NC(=O)CCc3ccccc3)C2)cc1` (centres unmarked) [#53] the same measures were 49.7% and 58%. On to `CC(C)(C)OC(=O)N1CCN(c2ccc(S(=O)(=O)N3CCN(C(=O)CCc4ccccc4)CC3)cc2)CC1` [#31], for which the figures for the remaining activity at 5 µM in assay [1] and in assay [2] were 81.8% and 78.3%, respectively.

Consider `CC1CCN(c2ccc(S(=O)(=O)N3CCCC(NC(=O)CCc4ccccc4)C3)cc2)CC1` (centres unmarked) [#40], for which the remaining activity at 5 µM came to 62.9% in assay [1] and 73.5% in assay [2].

With `CC(C)(C)OC(=O)N1CCN(c2ccc(S(=O)(=O)N3CCC(C(=O)NCCc4ccccc4)CC3)cc2)CC1` [#22], the remaining activity at 5 µM is 42.1% in assay [1] and 85.8% in assay [2]. As for `O=C(CCc1ccccc1)NC1CCCN(S(=O)(=O)c2ccc(F)cc2)C1` (centres unmarked) [#3], the remaining activity at 5 µM was 67% in assay [1] and 98% in assay [2].

With `O=C(CCc1ccccc1)NC1CCCN(S(=O)(=O)c2ccc(OCc3ccccc3)cc2)C1` (centres unmarked) [#4], the remaining activity at 5 µM came to 56.9% in assay [1] and 83.7% in assay [2]. In the case of `CC(C)(C)OC(=O)N1CCC(C2CCN(c3ccc(S(=O)(=O)N4CCCC(NC(=O)CCc5ccccc5)C4)cc3)CC2)CC1` (centres unmarked) [#41], the remaining activity at 5 µM in assay [1] stood at 39.9%; in assay [2] it was 61.1%. Regarding `CCCCNc1ccc(S(=O)(=O)N2CCC(C(=O)O)CC2)cc1` [#27], the remaining activity at 5 µM in assay [1] stood at 59.9%; in assay [2] it was 67.2%. For the compound `CC1CCCN(c2ccc(S(=O)(=O)N3CCCC(NC(=O)CCc4ccccc4)C3)cc2)C1` (centres unmarked) [#44], the remaining activity at 5 µM in assay [1] was determined as 63.5%; in assay [2] it was 83%.

Regarding `O=C(CCc1ccccc1)N1CCN(S(=O)(=O)c2ccc(N3CCCCC3)cc2)CC1` [#34], the remaining activity at 5 µM came out at 53.8% in assay [1] and 65.2% in assay [2]. For the compound `CN(C)c1ccc(S(=O)(=O)N2CCCC(NC(=O)CCc3ccccc3)C2)cc1` (centres unmarked) [#14], the results for the remaining activity at 5 µM in assay [1] and in assay [2] were 70.9% and 72.7%, respectively. Regarding `COCCOc1ccc(S(=O)(=O)N2CCCC(NC(=O)CCc3ccccc3)C2)cc1` (centres unmarked) [#17], the remaining activity at 5 µM stood at 77.6% in assay [1] and 64.9% in assay [2]. Turning to `O=C(NCCc1ccccc1)C1CCN(S(=O)(=O)c2ccc(N3CCOCC3)cc2)CC1` [#23], the figures for the remaining activity at 5 µM in assay [1] and in assay [2] were 70.7% and 57.7%, respectively. In the case of `CCCCNc1ccc(S(=O)(=O)N2CCCC(NC(=O)CCc3ccccc3)C2)cc1` (centres unmarked) [#15], the figures for the remaining activity at 5 µM in assay [1] and in assay [2] were 63.8% and 80.4%, respectively. Take `O=C(CCc1ccccc1)NC1CCCN(S(=O)(=O)c2ccc(N3CCOCC3)cc2)C1` (centres unmarked) [#12]: the results for the remaining activity at 5 µM in assay [1] and in assay [2] were 69.1% and 64.8%, respectively.

`O=C(CCc1ccccc1)NC1CCCN(S(=O)(=O)c2ccc(N3CCC(C(F)(F)F)CC3)cc2)C1` (centres unmarked) [#42]: the remaining activity at 5 µM came out at 55.8% in assay [1] and 62.7% in assay [2]. As to `O=C(CCc1ccccc1)N1CCN(S(=O)(=O)c2ccc(N3CCOCC3)cc2)CC1` [#32], the remaining activity at 5 µM in assay [1] amounted to 91%; in assay [2] it was 47.8%.

Take `CC1CCCCN1c1ccc(S(=O)(=O)N2CCCC(NC(=O)CCc3ccccc3)C2)cc1` (centres unmarked) [#47]: the remaining activity at 5 µM is 93.3% in assay [1] and 65.6% in assay [2]. On to `O=C(NCCc1ccccc1)C1CCN(S(=O)(=O)c2ccc(N3CCCCC3)cc2)CC1` [#20], for which the remaining activity at 5 µM in assay [1] is 50.6%; in assay [2], 68.1%. For `Cc1nc(N=Nc2ccc(S(=O)(=O)[O-])cc2S(=O)(=O)[O-])c(COP(=O)([O-])[O-])c(C=O)c1O.[Na+].[Na+].[Na+].[Na+]` [PPADS, Pyridoxalphosphate-6-azophenyl-2′,4′-disulfonic acid tetrasodium, reference compound], the “Percentage of activity remains in the presence of the compound at 5 μM, P2X2R (Calcium Assay)” value in assay [2] is reported as 6.2%.
